Measurements: PMC4077706, “Lifting the Mask: Identification of New Small Molecule Inhibitors of Uropathogenic Escherichia coli Group 2 Capsule Biogenesis” (PLoS ONE, 2014)

Key:
Glutamate, NMDA, Glycine = Glutamate, NMDA, Glycine (Rattus norvegicus, UniProt P35439); assay type: binding; set-up: Wistar Rat cerebral cortex; tissue Eurofins Panlabs 232910; host or cells: Wistar rat cerebral cortex; details: 10 µM
[1] = test system: K1 antigen of E. coli UTI89; experiment: K1 antigen dot blot; assay type: cell-based, Escherichia coli; details: 100 µM
Method: K1 antigen was detected by dot blot assays of culture extracts probed with anti-K1 H46 serum. The assay was performed as previously described. The experiment was repeated twice with similar results, and a representative dot blot is shown.

[2] = target: Serotonin (5-Hydroxytryptamine) 5-HT3 (Homo sapiens, UniProt P46098); assay type: binding; set-up: host or cells: HEK-293; details: 10 µM
Tachykinin NK1 = target: T1, Tachykinin NK1 (Homo sapiens, UniProt P25103); experiment: Radioligand binding 255520; details: 10 µM
T1 construct: host or cells: CHO

Histamine H3 = target: T2, Histamine H3 (Homo sapiens, UniProt Q9Y5N1); experiment: Radioligand binding 239820; details: 10 µM
T2 construct: host or cells: CHO-K1 cells

GABAA, Muscimol, Central = assay type: binding, rat; details: 10 µM
[3] = target: Calcium Channel L-Type, Benzothiazepine (Rattus norvegicus, UniProt P22002); assay type: binding; details: 10 µM
[4] = Mouse
Glutamate, NMDA, Agonism = Glutamate, NMDA, Agonism (Rattus norvegicus, UniProt Q00959); experiment: Radioligand binding 232810; details: 10 µM
Prostanoid EP4 = target: T3, Prostanoid EP4 (Homo sapiens, UniProt P35408); experiment: Radioligand binding 268420; details: 10 µM
T3 construct: host or cells: Chem-1

Opiate δ1 (OP1, DOP) = Opiate δ1 (OP1, DOP) (Homo sapiens, UniProt P41143); assay type: binding; set-up: host or cells: HEK-293 cells; details: 10 µM
Opiate δ1 (OP1, DOP), sequence (P41143 whole entry): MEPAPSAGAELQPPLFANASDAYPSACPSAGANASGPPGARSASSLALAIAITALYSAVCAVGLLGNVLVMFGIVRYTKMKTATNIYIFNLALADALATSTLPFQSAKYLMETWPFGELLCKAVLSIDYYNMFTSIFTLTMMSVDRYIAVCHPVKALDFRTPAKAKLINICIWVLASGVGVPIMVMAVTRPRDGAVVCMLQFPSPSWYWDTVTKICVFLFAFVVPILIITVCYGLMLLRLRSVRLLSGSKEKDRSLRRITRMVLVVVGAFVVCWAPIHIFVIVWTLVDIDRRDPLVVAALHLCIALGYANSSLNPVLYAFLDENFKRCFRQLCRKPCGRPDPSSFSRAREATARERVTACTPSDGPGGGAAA

Serotonin (5-Hydroxytryptamine) 5-HT3, sequence (P46098 24-478): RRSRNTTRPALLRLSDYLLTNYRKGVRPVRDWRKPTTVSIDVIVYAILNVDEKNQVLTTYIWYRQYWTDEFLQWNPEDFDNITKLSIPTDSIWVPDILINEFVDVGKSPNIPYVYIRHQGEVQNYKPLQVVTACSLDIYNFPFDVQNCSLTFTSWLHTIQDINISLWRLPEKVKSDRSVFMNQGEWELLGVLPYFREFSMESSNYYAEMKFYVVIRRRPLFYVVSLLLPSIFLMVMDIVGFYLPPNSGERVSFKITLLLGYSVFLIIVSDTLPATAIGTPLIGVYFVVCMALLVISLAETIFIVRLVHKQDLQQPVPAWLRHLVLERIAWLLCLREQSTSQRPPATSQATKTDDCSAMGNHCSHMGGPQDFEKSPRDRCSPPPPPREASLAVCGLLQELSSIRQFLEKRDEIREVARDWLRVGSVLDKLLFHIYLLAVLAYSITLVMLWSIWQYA
Calcium Channel L-Type, Benzothiazepine, sequence (P22002 whole entry): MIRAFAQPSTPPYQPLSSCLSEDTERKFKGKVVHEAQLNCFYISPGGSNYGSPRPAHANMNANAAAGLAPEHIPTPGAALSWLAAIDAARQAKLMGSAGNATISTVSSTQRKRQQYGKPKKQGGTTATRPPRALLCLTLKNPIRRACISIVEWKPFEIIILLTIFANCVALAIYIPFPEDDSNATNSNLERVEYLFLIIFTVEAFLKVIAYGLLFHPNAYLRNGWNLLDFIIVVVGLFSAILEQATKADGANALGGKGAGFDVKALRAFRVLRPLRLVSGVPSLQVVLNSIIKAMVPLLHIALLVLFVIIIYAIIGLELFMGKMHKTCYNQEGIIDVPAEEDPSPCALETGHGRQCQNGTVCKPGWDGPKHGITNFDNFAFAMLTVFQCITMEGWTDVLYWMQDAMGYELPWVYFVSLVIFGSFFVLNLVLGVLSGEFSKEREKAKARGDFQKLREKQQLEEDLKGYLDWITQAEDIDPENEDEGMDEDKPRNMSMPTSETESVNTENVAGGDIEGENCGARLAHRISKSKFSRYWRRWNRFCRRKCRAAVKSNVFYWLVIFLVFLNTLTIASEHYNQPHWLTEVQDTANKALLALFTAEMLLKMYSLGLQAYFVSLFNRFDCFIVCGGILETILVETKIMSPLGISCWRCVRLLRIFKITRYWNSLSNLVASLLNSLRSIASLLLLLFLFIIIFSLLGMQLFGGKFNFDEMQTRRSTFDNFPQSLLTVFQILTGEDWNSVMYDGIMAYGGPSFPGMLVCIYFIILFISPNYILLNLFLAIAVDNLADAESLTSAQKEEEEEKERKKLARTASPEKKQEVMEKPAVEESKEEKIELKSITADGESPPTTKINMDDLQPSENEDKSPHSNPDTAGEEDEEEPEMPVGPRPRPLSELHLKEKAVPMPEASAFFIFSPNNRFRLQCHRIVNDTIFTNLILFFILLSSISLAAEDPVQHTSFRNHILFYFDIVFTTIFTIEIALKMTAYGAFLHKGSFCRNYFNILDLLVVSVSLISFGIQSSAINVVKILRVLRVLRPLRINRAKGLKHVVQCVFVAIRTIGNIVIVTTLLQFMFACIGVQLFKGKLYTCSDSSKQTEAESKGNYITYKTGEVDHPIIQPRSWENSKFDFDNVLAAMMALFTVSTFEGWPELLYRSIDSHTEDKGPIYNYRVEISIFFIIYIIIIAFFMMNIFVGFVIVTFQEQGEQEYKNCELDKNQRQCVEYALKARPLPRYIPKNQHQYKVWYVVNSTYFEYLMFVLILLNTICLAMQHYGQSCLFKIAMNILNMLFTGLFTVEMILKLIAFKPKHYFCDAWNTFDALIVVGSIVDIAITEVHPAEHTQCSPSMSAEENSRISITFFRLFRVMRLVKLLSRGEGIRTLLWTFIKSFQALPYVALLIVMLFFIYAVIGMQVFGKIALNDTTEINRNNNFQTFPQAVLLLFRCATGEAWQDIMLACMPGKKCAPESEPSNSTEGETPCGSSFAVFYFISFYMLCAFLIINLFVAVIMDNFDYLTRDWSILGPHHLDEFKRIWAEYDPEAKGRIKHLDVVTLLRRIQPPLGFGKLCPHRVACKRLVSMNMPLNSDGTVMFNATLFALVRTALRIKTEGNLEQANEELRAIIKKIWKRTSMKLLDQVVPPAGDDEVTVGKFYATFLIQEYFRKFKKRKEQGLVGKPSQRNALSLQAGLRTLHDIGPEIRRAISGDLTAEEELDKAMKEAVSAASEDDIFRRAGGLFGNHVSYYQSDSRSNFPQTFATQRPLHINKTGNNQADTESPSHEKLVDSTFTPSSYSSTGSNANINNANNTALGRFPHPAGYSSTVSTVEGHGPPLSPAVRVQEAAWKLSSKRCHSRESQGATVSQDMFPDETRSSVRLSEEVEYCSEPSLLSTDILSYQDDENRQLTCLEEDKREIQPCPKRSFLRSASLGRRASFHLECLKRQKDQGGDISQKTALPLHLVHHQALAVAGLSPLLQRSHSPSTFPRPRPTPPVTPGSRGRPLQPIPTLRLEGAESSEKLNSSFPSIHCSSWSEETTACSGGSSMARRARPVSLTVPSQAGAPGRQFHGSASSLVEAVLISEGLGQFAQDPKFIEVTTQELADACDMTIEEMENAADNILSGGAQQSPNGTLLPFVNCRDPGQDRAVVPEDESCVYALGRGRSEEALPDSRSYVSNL
T3 sequence (P35408 whole entry): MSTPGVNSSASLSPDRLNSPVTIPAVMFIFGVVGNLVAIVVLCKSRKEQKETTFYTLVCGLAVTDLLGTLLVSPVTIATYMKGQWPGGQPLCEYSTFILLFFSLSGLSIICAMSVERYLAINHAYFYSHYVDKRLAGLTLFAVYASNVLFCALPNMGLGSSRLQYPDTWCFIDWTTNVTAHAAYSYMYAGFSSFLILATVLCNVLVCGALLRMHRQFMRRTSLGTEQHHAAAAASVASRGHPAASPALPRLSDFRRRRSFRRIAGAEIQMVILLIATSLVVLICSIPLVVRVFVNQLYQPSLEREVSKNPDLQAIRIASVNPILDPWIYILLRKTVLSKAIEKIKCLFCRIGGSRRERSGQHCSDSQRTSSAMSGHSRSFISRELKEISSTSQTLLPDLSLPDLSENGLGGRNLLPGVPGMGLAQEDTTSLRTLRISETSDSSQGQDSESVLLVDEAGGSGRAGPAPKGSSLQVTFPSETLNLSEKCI
T2 sequence (Q9Y5N1 whole entry): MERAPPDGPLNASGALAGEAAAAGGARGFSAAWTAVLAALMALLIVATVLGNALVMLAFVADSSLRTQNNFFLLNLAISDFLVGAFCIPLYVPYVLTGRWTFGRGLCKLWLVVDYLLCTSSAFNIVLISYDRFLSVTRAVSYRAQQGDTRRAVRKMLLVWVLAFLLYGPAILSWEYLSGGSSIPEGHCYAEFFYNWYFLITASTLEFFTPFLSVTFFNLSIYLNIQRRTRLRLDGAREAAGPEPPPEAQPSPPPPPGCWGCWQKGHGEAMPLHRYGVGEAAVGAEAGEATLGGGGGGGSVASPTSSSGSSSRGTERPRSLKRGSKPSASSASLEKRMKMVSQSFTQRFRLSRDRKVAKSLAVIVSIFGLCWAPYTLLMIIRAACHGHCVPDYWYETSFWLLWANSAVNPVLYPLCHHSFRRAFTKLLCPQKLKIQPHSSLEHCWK
T1 sequence (P25103 whole entry): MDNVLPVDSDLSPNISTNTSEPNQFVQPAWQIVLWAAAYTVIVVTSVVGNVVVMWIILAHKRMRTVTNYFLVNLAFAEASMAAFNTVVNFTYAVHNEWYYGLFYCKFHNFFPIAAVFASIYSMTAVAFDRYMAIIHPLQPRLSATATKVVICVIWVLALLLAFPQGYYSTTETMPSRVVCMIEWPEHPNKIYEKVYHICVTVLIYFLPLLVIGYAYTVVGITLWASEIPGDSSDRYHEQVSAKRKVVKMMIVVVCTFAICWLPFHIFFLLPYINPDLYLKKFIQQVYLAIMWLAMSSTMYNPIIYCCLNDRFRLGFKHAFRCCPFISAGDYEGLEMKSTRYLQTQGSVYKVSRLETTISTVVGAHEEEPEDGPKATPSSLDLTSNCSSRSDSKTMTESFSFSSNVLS

SMILES: CCOc1ccc(-c2cc(NC(=O)c3c(F)cccc3F)c(C(=O)O)s2)cc1 [DU011]
- % Inh. (Glutamate, NMDA, Glycine): 6%
- K1 reactive material, whole-cell anti-K1 dot blot [1]: reduces K1 reactive material to levels comparable to those of genetic capsule mutants
- % Inh. [2]: -7%
- % Inh. (Tachykinin NK1): 7%
- % Inh. (Histamine H3): 13%
- % Inh. (GABAA, Muscimol, Central): 4%
- % Inh. [3]: -1%
- Plasma Stability, percent remaining at 3 hrs [4]: 78.39%
- % Inh. (Glutamate, NMDA, Agonism): -8%
- % Inh. (Prostanoid EP4): -4%
- % Inh. (Opiate δ1 (OP1, DOP)): 10%
